Data set [1] is described as follows: Protein binding in 20% mouse kidney homogenate (rapid equilibrium dialysis). The conditions noted are these: corrected for dilution, 1000 ng/mL, 4 h at 37 °C, mean ± SD, triplicate.
Experimental: (§1) Four hours after incubation at 37 °C on a shaking incubator at 300 rpm, aliquots (50 μL) were collected from both the sample and buffer chambers and treated with equal volumes of fresh PBS and blank plasma or blank kidney homogenate, respectively, to match the sample matrices. The matrix-matched sample (100 μL) was added 100 μL of aqueous solution of D4-DWP16001 (IS, 20 ng/mL), and vigorously mixed with 1000 μL MTBE for 15 min. After centrifugation at 16,000 g for 5 min, samples were kept for 1 h at −80 °C. An organic upper layer was transferred to a clean tube and evaporated to dryness under a gentle stream of nitrogen. Then, the dried extract was reconstituted in 300 µL of mobile phase and a 3 µL aliquot of the reconstituent was injected into the LC-MS/MS system.
Kidney protein binding was calculated using the following equations, Equations (2) and (3), and a dilution factor (D as a value of 5) for tissue homogenates was used since we used 20% kidney homogenates [6, 7]. (2) Diluted free drug fraction (fu′)=Drug concentration in buffer chamber/Drug concentration in kidney homogenate chamber, (3) Undiluted free drug fraction (fu)=1/D/(1/fu^′−1)+1/D=fu′×0.2/1−fu′×0.8.
Data set [2] can be described thus: Pharmacokinetic study and kidney distribution after single oral administration in ICR mice.
Experimental: (§2) An aliquot (30 µL) of each plasma sample was stored at −80 °C until the analysis. […] An aliquot (50 µL) of each kidney homogenate sample was stored at −80 °C until the analysis.
(§3) For the analysis of SGLT2 inhibitors, aliquots of plasma (30 µL) and kidney homogenate (50 µL) were added to 100 μL of aqueous solution of D4-DWP16001 (IS, 20 ng/mL), and vigorously mixed with 500 μL methyl tert-butyl ether (MTBE) for 15 min. After centrifugation at 16,000 g for 5 min, samples were kept for 1 h at −80 °C to make an aqueous layer freeze. An organic upper layer was transferred to a clean tube and evaporated to dryness under a gentle stream of nitrogen. Then, the dried extract was reconstituted in 150 µL of mobile phase, and a 3 µL aliquot of the reconstituent was injected into a liquid chromatography–tandem mass spectrometry (LC–MS/MS) system.
(§4) Pharmacokinetic parameters, such as the area under plasma concentration-time curve from zero to infinity (AUC), were calculated from plasma concentration vs time curves using non-compartment analysis with WinNonlin (version 5.1; Pharsights, Cary, NC, USA). The AUC ratios (i.e., ratios of kidney AUC to plasma AUC) were calculated by dividing the AUC of the three SGLT2 inhibitors in the kidney by the plasma AUC values of the three SGLT2 inhibitors.
Data set [3] is described as follows: logP (partition coefficient of n-octanol/water).
The target in data set [4] is T1, SGLT2 (Homo sapiens, UniProt P31639).
T1 construct: host or cells: CHO
T1 sequence (P31639 1-672): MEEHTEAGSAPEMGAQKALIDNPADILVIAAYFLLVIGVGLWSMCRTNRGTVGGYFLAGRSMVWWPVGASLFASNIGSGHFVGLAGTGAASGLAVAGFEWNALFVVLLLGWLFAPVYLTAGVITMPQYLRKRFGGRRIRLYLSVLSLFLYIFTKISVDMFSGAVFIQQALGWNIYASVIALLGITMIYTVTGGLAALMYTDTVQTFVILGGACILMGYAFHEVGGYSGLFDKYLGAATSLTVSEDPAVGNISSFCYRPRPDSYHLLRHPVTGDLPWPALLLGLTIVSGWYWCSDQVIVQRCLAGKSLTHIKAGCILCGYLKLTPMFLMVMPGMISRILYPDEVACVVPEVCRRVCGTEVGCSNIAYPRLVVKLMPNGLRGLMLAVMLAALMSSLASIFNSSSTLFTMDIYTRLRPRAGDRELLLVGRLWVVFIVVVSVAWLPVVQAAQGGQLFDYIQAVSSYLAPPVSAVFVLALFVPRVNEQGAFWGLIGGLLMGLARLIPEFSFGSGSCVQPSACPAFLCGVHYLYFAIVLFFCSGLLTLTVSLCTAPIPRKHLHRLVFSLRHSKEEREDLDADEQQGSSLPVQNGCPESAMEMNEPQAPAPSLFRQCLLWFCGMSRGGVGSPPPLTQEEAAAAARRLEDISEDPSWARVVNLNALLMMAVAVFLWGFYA
The experiment in a line: Recovery of SGLT2 activity after washout following 24 h exposure in CHO-SGLT2 cells. Format: cell-based. As to the method: After 24 h, the RPMI1640 medium was replaced with pre-warmed fresh RPMI1640 medium and incubated for 1, 2, 3, 5, and 6 h, and proceeded another pre-incubation with Na^+-free buffer for 1 h. Then, after replacing Na^+-free buffer with Na^+ gradient buffer containing 10 µM [^14C]AMG, the uptake of [^14C]AMG into the CHO-SGLT2 cells was measured for 2 h. After 2 h of incubation, the radioactivity of the cell lysate was measured following the same sample preparation method described above.

A short description of data set [5]: Protein binding in mouse plasma (rapid equilibrium dialysis). The conditions noted are these: 1000 ng/mL, 4 h at 37 °C, mean ± SD, triplicate.
Experimental: as §1
Plasma protein binding was calculated using the following Equation (1) [6, 7]. (1) Undiluted free drug fraction (fu)=Drug concentration in buffer chamber/Drug concentration in plasma sample chamber
The target of data set [6] is T1, SGLT2. Particulars: read-out: IC50 values of previous reports; cited from earlier work.
On the set-up of data set [7]: method as in PMID 27430987. The conditions noted are these: cited from earlier work.
For data set [8] the following is noted: mouse, in vivo, po, 1 mg/kg.
Experimental: as §2, §3, §4
A further data set in a line: in vivo. The conditions noted are these: ICR, mouse, po, 1 mg/kg.
The mark [9] stands for this setting: ICR, mouse, plasma, po, 1 mg/kg.

Each structure is given as a SMILES string. Like-named read-outs stand apart in the source and are kept apart here. Some results are limits rather than exact numbers.

Experimental for in vivo: as §2, §3, §4

`OC[C@H]1O[C@@H](c2cc(Cc3ccc(C4CC4)cc3)c(Cl)c3c2CCO3)[C@H](O)[C@@H](O)[C@@H]1O` [DWP16001]: in data set [1], the “Protein Binding (% Bound) Kidney” value is recorded as 97.24 ± 0.08 % Bound. The same compound yielded a Kp in data set [2] (ICR, mouse, kidney homogenate and plasma, po, 1 mg/kg) of 85 ± 16.1. For the same compound, in data set [2] (ICR, mouse, kidney, po, 1 mg/kg, t1/2, kidney, single oral 1 mg/kg, ICR mice, mean ± SD, five mice), the half-life is 126 ± 80.4 h. In data set [2] (setting [9]), the AUC(0-inf) amounted to 1730 ± 340 ng·h/mL, the AUC(0-t) came to 1690 ± 340 ng·h/mL, the peak level (Cmax) was 371 ± 109 ng/mL and the Tmax came out at 0.7 ± 0.3 h. The compound also showed a half-life in data set [2] (ICR, mouse, plasma, po, 1 mg/kg, t1/2, plasma, single oral 1 mg/kg, ICR mice, mean ± SD, five mice) of 3.8 ± 1.4 h. The compound also displayed an AUC72h in [2] (kidney, single oral 1 mg/kg, ICR mice, mean ± SD, five mice) of 139.2 ± 5.19 μg∙h/g tissue. Besides, the logP in [3] was 2.65. Moreover, on SGLT2 [4] (200 nM), the “Time after drug removal at which SGLT2 activity had not recovered” value came out at 8 h. Moreover, the “Protein Binding (% Bound) Plasma” value in data set [5] is listed as 98.50 ± 0.20 % Bound.

As to `OC[C@H]1O[C@@H](c2ccc(F)c(Cc3cc4ccccc4s3)c2)[C@H](O)[C@@H](O)[C@@H]1O` [Ipragliflozin, ipragliflozin], the IC50 on SGLT2 [6] is 6.75 to 8.07 nM. In addition, the “Duration of increased urinary glucose excretion post dose” value in data set [7] is reported as ≥ 18 h. In the data set “physchem”, this compound registered a log partition coefficient (logP) of 2.56. In data set [8], this compound returned an AUC72h of 73.65 ± 7.05 μg∙h/g tissue. Further, in the data set “in vivo”, the AUC(0-inf) was 1970 ± 410 ng·h/mL, the AUC(0-t) was 1960 ± 410 ng·h/mL, the Cmax amounted to 410 ± 59.1 ng/mL and the Kp is 38.4 ± 5.3. Besides, in the data set “in vivo”, the Tmax is 0.6 ± 0.2 h. Also, the “Time after drug removal to recovery of SGLT2 activity to the control level” value on SGLT2 [4] (0.2–200 nM) was 4 h.

The values are drawn from article PMC7151106 (Pharmaceutics, 2020).
